# Data from US20040044008A1, “Use of therapeutic benzamide derivatives” (priority 2000, published 2004).
row,Compound,melting point [°C]
1,COc1ccc(-c2ccccc2C(=O)Nc2ccc(N3CCN(Cc4cccc(C#N)c4)CC3)cc2)cc1,124 to 128
2,Cc1ccc(-c2ccccc2C(=O)Nc2ccc(N3CCN(Cc4cccc(C#N)c4)CC3)cc2)cc1C,140 to 144
3,Cc1ccc(-c2ccccc2C(=O)Nc2ccc(N3CCN(Cc4cccc(C#N)c4)CC3)cc2)c(C)c1,72 to 76
4,"N#Cc1cccc(CN2CCN(c3ccc(NC(=O)c4ccccc4-c4ccccc4)cc3)CC2)c1 (hydrate or solvate) [Example 11, Biphenyl-2-carboxylic acid [4-[4-(3-cyano-benzyl)-piperazin-1-yl]-phenyl]-amide]",169 to 171
5,"N#Cc1cccc(CN2CCN(c3ccc(NC(=O)c4ccccc4Oc4ccccc4)cc3)CC2)c1 (hydrate or solvate) [Example 14, N-[4-[4-(3-Cyano-benzyl)-piperazin-1-yl]-phenyl]-2-phenoxy-benzamide]",133 to 134
6,"CC(C)c1ccc(-c2cc(Cl)ccc2C(=O)Nc2ccc(N3CCN(Cc4cccc(C#N)c4)CC3)cc2)cc1 [Example 7, 5-Chloro-4′-isopropyl-biphenyl-2-carboxylic acid [4-[4-(3-cyano-benzyl)-piperazin-1-yl]-phenyl]-amide]",188 to 190
7,"COc1cccc(C(=O)Nc2ccc(N3CCN(Cc4cccc(C#N)c4)CC3)cc2)c1-c1ccc(C(F)(F)F)cc1 [Example 8, 6-Methoxy-4′-trifluoromethyl-biphenyl-2-carboxylic acid [4-[4-(3-cyano-benzyl)-piperazin-1-yl]-phenyl]-amide]",215 to 217
8,"COc1ccc(C(=O)Nc2ccc(N3CCN(Cc4cccc(C#N)c4)CC3)cc2)c(-c2ccccc2)c1 [Example 12, 5-Methoxy-biphenyl-2-carboxylic acid [4-[4-(3-cyano-benzyl)-piperazin-1-yl]-phenyl]-amide]",159 to 161
9,"CC(C)c1ccc(-c2ccccc2C(=O)Nc2ccc(N3CCN(Cc4cccc(C#N)c4)CC3)cc2)cc1 [Example 16, 4′-Isopropyl-biphenyl-2-carboxylic acid [4-[4-(3-cyano-benzyl)-piperazin-1-yl]-phenyl]-amide]",133 to 135
10,"CCc1ccc(-c2ccccc2C(=O)Nc2ccc(N3CCN(Cc4cccc(C#N)c4)CC3)cc2)cc1 [Example 20, 4′-Ethyl-biphenyl-2-carboxylic acid [4-[4-(3-cyano-benzyl)-piperazin-1-yl]-phenyl]-amide]",118 to 122
11,"N#Cc1cccc(CN2CCN(c3ccc(NC(=O)c4ccccc4-c4ccc(F)cc4)cc3)CC2)c1 [Example 23, 4′-Fluoro-biphenyl-2-carboxylic acid [4-[4-(3-cyano-benzyl)-piperazin-1-yl]-phenyl]-amide]",200 to 202
12,"COc1ccc(-c2ccccc2C(=O)Nc2ccc(N3CCN(Cc4cccc(C#N)c4)CC3)cc2)cc1OC [Example 26, 3′,4′-Dimethoxy-biphenyl-2-carboxylic acid [4-[4-(3-cyano-benzyl)-piperazin-1-yl]-phenyl]-amide]",116 to 120
13,"COc1cccc(C(=O)Nc2ccc(N3CCN(Cc4cccc(C#N)c4)CC3)cc2)c1OCc1ccc(F)cc1 [Example 29, N-[4-[4-(3-Cyano-benzyl)-piperazin-1-yl]-phenyl]-2-(4-fluoro-benzyloxy)-3-methoxy-benzamide]",118 to 120
14,"COc1cccc(C(=O)Nc2ccc(N3CCN(Cc4cccc(C#N)c4)CC3)cc2)c1OCCc1ccccc1 [Example 30, N-[4-[4-(3-Cyano-benzyl)-piperazin-1-yl]-phenyl]-3-methoxy-2-phenethyloxy-benzamide]",140 to 142
15,"COc1cccc(C(=O)Nc2ccc(N3CCN(Cc4cccc(C#N)c4)CC3)cc2)c1OCCC1CCCCC1 [Example 31, N-[4-[4-(3-Cyano-benzyl)-piperazin-1-yl]-phenyl]-2-(2-cyclohexyl-ethoxy)-3-methoxy-benzamide]",102 to 104
16,"N#Cc1cccc(CN2CCN(c3ccc(NC(=O)c4ccccc4OCCC4CCCCC4)cc3)CC2)c1 [Example 32, N-[4-[4-(3-Cyano-benzyl)-piperazin-1-yl]-phenyl]-2-(2-cyclohexyl-ethoxy)-benzamide]",119 to 121
17,"COc1cccc(C(=O)Nc2ccc(N3CCN(Cc4cccc(C#N)c4)CC3)cc2)c1OCCCc1ccccc1 [Example 33, N-[4-[4-(3-Cyano-benzyl)-piperazin-1-yl]-phenyl]-3-methoxy-2-(3-phenyl-propoxy)-benzamide]",134 to 136

# Continued, values first:
row,melting point [°C],Compound
1,194 to 196,O=C(Nc1ccc(N2CCN(Cc3ccncc3)CC2)cc1)c1ccccc1-c1ccc(C(F)(F)F)cc1
2,168 to 170,"COc1cccc(CN2CCN(c3ccc(NC(=O)c4ccccc4-c4ccc(C(F)(F)F)cc4)cc3)CC2)c1 (hydrate or solvate) [Example 51, 4′-Trifluoromethyl-biphenyl-2-carboxylic acid [4-[4-(3-methoxy-benzyl)-piperazin-1-yl]-phenyl]-amide]"
3,189 to 190.5,"O=C(Nc1ccc(N2CCN(Cc3cccc(F)c3)CC2)cc1)c1ccccc1-c1ccc(C(F)(F)F)cc1 (hydrate or solvate) [Example 53, 4′-Trifluoromethyl-biphenyl-2-carboxylic acid [4-[4-(3-fluoro-benzyl)-piperazin-1-yl]-phenyl]-amide]"
4,168 to 170,"O=C(Nc1ccc(N2CCN(Cc3ccccn3)CC2)cc1)c1ccccc1-c1ccc(C(F)(F)F)cc1 (hydrate or solvate) [Example 57, 4′-Trifluoromethyl-biphenyl-2-carboxylic acid [4-(4-pyridin-2-ylmethyl-piperazin-1-yl)-phenyl]-amide]"
5,187 to 189,"O=C(Nc1ccc(N2CCN(Cc3nccs3)CC2)cc1)c1ccccc1-c1ccc(C(F)(F)F)cc1 (hydrate or solvate) [Example 59, 4′-Trifluoromethyl-biphenyl-2-carboxylic acid [4-(4-thiazol-2-ylmethyl-piperazin-1-yl)-phenyl]-amide]"
6,166 to 168,"Cc1ccc(C(=O)Nc2ccc(N3CCN(Cc4cccc(C#N)c4)CC3)cc2)c(-c2ccc(C(F)(F)F)cc2)c1 [Example 9, 5-Methyl-4′-trifluoromethyl-biphenyl-2-carboxylic acid [4-[4-(3-cyano-benzyl)-piperazin-1-yl]-phenyl]-amide]"
7,164 to 165,"N#Cc1cccc(CN2CCN(c3ccc(NC(=O)c4ccc(Cl)cc4-c4ccc(C(F)(F)F)cc4)cc3)CC2)c1 [Example 10, 5-Chloro-4′-trifluoromethyl-biphenyl-2-carboxylic acid [4-[4-(3-cyano-benzyl)-piperazin-1-yl]-phenyl]-amide]"
8,160 to 164,"COc1ccc(C(=O)Nc2ccc(N3CCN(Cc4cccc(C#N)c4)CC3)cc2)c(-c2ccc(C(F)(F)F)cc2)c1 [Example 17, 5-Methoxy-4′-trifluoromethyl-biphenyl-2-carboxylic acid [4-[4-(3-cyano-benzyl)-piperazin-1-yl]-phenyl]-amide]"
9,120 to 124,"Cc1ccc(-c2ccc(C(F)(F)F)cc2)c(C(=O)Nc2ccc(N3CCN(Cc4cccc(C#N)c4)CC3)cc2)c1 [Example 18, 4-Methyl4′-trifluoromethyl-biphenyl-2-carboxylic acid [4-[4-(3-cyano-benzyl)-piperazin-1-yl]-phenyl]-amide]"
10,151 to 155,"COc1ccc(-c2ccc(C(F)(F)F)cc2)c(C(=O)Nc2ccc(N3CCN(Cc4cccc(C#N)c4)CC3)cc2)c1 [Example 19, 4-Methoxy-4′-trifluoromethyl-biphenyl-2-carboxylic acid [4-[4-(3-cyano-benzyl)-piperazin-1-yl]-phenyl]-amide]"
11,117 to 121,"N#Cc1cccc(CN2CCN(c3ccc(NC(=O)c4ccccc4-c4cccc(C(F)(F)F)c4)cc3)CC2)c1 [Example 22, 3′-Trifluoromethyl-biphenyl-2-carboxylic acid [4-[4-(3-cyano-benzyl)-piperazin-1-yl]-phenyl]-amide]"
12,196 to 198,"Cc1cccc(C(=O)Nc2ccc(N3CCN(CC(N)=O)CC3)cc2)c1-c1ccc(C(F)(F)F)cc1 [Example 40, 6-Methyl4′-trifluoromethyl-biphenyl-2-carboxylic acid [4-(4-carbamoylmethyl-piperazin-1-yl)-phenyl]-amide]"
13,244 to 246,"N#CCN1CCN(c2ccc(NC(=O)c3ccccc3-c3ccc(C(F)(F)F)cc3)cc2)CC1 [Example 41, 4′-Trifluoromethyl-biphenyl-2-carboxylic acid [4-(4-cyanomethyl-piperazin-1-yl]-phenyl]-amide]"
14,167 to 169,"CCOC(=O)CN1CCN(c2ccc(NC(=O)c3ccccc3-c3ccc(C(F)(F)F)cc3)cc2)CC1 [Example 42, 4′-Trifluoromethyl-biphenyl-2-carboxylic acid [4-(4-ethoxycarbonylmethyl-piperazin-1-yl)-phenyl]-amide]"
15,176 to 178,"CCOCCN1CCN(c2ccc(NC(=O)c3ccccc3-c3ccc(C(F)(F)F)cc3)cc2)CC1 [Example 43, 4′-Trifluoromethyl-biphenyl-2-carboxylic acid [4-(4-(2-ethoxy-ethyl)-piperazin-1-yl]-phenyl]-amide]"
16,208 to 210,"O=C(Nc1ccc(N2CCN(CCCO)CC2)cc1)c1ccccc1-c1ccc(C(F)(F)F)cc1 [Example 44, 4′-Trifluoromethyl-biphenyl-2-carboxylic acid [4-(4-(3-hydroxy-propyl)-piperazin-1-yl]-phenyl]-amide]"
17,198 to 200,"O=C(Nc1ccc(N2CCN(CCCC(F)(F)F)CC2)cc1)c1ccccc1-c1ccc(C(F)(F)F)cc1 [Example 45, 4′-Trifluoromethyl-biphenyl-2-carboxylic acid [4-(4-(4,4,4-trifluoro-butyl)-piperazin-1-yl]-phenyl]-amide]"
18,203 to 205,"CC(C)=CCN1CCN(c2ccc(NC(=O)c3ccccc3-c3ccc(C(F)(F)F)cc3)cc2)CC1 [Example 46, 4′-Trifluoromethyl-biphenyl-2-carboxylic acid [4-(4-(3-methyl-but-2-enyl)-piperazin-1-yl]-phenyl]-amide]"
